Consider one sequence from US10336788B2, “Inhibition of cardiac fibrosis in myocardial infarction” (Moerae Matrix, Inc., priority 2014, dated 2019).

No end group written: not given here.

For one assay, the system named is HL1 cells. Nature of the assay: LDH release assay in HL1 cells (1% hypoxia or normoxia). The conditions noted are these: for LDH release: 1% hypoxia. It is filed as cell-based, mouse. The protocol: H9C2 is a myoblast cell line derived from rat myocardium obtained from ATCC® (CRL-1446, ATCC, Manassas, Va.) and cultured according to the recommended protocols. Briefly, cells were maintained at 37° C. with 5% CO2 in DMEM supplemented with 10% fetal bovine serum and antibiotics (100 U/ml penicillin, […] streptomycin) and split at a ratio of 1:4 using 0.05% trypsin every 36 hours. HL-1 cells were obtained from Dr. William Claycomb and cultured according to the published protocols [Claycomb W C, Lanson N A, Jr., Stallworth B S, Egeland D B, Delcarpio J B, Bahinski A, et al. HL-1 cells: a cardiac muscle cell line that contracts and retains phenotypic characteristics of the adult cardiomyocyte. Proc. Natl Acad. Sci. USA. 1998; 95:2979-84; White S M, Constantin P E, Claycomb W C. Cardiac physiology at the cellular level: use of cultured HL-1 cardiomyocytes for studies of cardiac muscle cell structure and function. Am. J. Physiol. Heart Circul. Physiol. 2004; 286:H823-9]. Briefly, cells were cultured in Claycomb medium (JRH Biosciences, USA) supplemented with 10% fetal bovine serum (JRH Biosciences), 2 mM L-glutamine (Gibco, Grand Island, N.Y.), 100 μM norepinephrine (Sigma, USA), 100 U/mL penicillin, and 100 μg/mL streptomycin (Gibco) in flasks precoated with fibronectin and gelatin (Sigma), then incubated at 37° C. in 5% CO2. Cells were split at a ratio of 1:4 using 0.05% trypsin every 48 hours. Primary cardiac fibroblasts were obtained from 2-4-day-old Sprague Dawley rats, according to previously described protocols (cat. #L K003300, Worthington Biochemical Corp., Lakewood, N.J.) [Toraason M, Luken M E, Breitenstein M, Krueger J A, Biagini R E. Comparative toxicity of allylamine and acrolein in cultured myocytes and fibroblasts from neonatal rat heart. Toxicology. […]
Cells were rinsed in PMS and grown in DMEM (cat. #11966-025, Gibco) for 2 hours prior to initiating hypoxia (simulated ischemia). […] Three different time points were adopted for each of the three cell lines according to the severity of cell death under hypoxia determined by LDH release: for H9C2 cell line: 8 hr; 16 hr; 24 hr; for HL-1 cell line: 4 hr; 8 hr; 12 hr; for cardiac fibroblast cell line: 16 hr; 32 hr; 48 hr.
Cell death was first determined using an LDH release assay (cat. #630117, Clontech), according to the manufacturer's instructions. […] Caspase 3/7 activity was next determined using a commercial Caspase 3/7 activity kit (Cat. #G8091, Promega, Madison, Wis. 53711) in a 384 well plate (Cat. #781903, Greiner bio-one) according to the manufacturer's instructions. […] The resulting cell lysates (25 μl, with 0.6 ug total protein) and Caspase-Glo 3/7 Reagent were added to each well in a 1:1 ratio and the luminescence was read (CLARIOstar, BMG LABTECH GmbH). […]
(In general: LDH in the medium is a marker of cell lysis.)

The subject of the next assay is MK2. The assay can be described thus: Immunoblot analysis of MK2 activity (HNRNPA0, total MK2, p-MK2) in HL1 cells. It is filed as cell-based, mouse. The protocol:
Cells were rinsed in PMS and grown in DMEM (cat. #11966-025, Gibco) for 2 hours prior to initiating hypoxia (simulated ischemia). Hypoxia was induced by placing cells in a hypoxia chamber ([…] 150i, Thermo Scientific) in a mixture of 5% CO2/95% N2 to attain a 1% oxygen concentration, according to the manufacturer's instruction. […] The MMI-0100 peptide was added to the cells at the start of the ischemia time. Cells were cultured in 12 well plates. At the time of performing the experiments, all cultures were approximately 70-90% confluent. Three different time points were adopted for each of the three cell lines according to the severity of cell death under hypoxia determined by LDH release: for H9C2 cell line: 8 hr; 16 hr; 24 hr; for HL-1 cell line: 4 hr; 8 hr; 12 hr; for cardiac fibroblast cell line: 16 hr; 32 hr; 48 hr.
The left over cell lysates from the Caspase activity assay were used for the Western blots. […] After blocking with recommended blocking reagents for 1 h at the room temperature, the membranes were incubated overnight at 4° C. with primary antibodies in TBS-T, and then incubated with secondary antibodies conjugated with HRP in TBS-T. HNRNPA0, MAPK2, and phospho-MAPK2 proteins were detected using anti-HNRNPA0 (cat. #HPA036569, 1:1000, Sigma-Aldrich), anti-MAPKAPK2 (cat. #SAB4300553, Sigma-Aldrich), and anti-phospho-MAPKAPK2 (cat. #SAB4300241, 1:1000, Sigma-Aldrich). […]

Turning to YARAAARQARAKALARQLGVAA [MMI-0100], the LDH release result in the assay on HL1 cells (100 μM only, 8 hours) is on record as “enhanced”; in the assay with HL1 cells (20 and 100 μM, 4 hours), “significantly enhanced”. Also, the “LDH release in normoxic conditions” value in the assay with HL1 cells (100 μM, normoxia (FIG. 11B)) was “unexpectedly inhibited”; in the assay on HL1 cells (absence of hypoxia, 4 hours), “did not enhance LDH release”. In the assay on MK2 (100 μM, 4 and 8 hours after induction by hypoxia), the HNRNPA0 protein expression entry is given as “inhibited”. The “total MK2 and p-MK2 protein levels” value in the assay with MK2 (20 or 100 μM, 1% hypoxia) is listed as “not changed”.
